Experiment: HCV replicon assay (luciferase reporter, ET cell line)
Type: cell-based
Settings: Hepatitis C virus, HCV replicon luciferase activity in ET cells
Procedure, shortened: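 ET cells carry a stable luciferase-ubiquitin-neo/NS3-5B subgenomic HCV replicon with adaptive mutations. Compounds (0.1 nM to […], 0.5% DMSO) were added 24 h after plating, and luciferase was read 48-72 h later. EC50 came from 10-point 2-fold dilutions fitted to a Hill equation; TC50 was measured in parallel by WST-1.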

Compound	inhibition at 10 µM [%]
O=C1OC(c2ccccc2)CN1Cc1cn2cc(-c3ccoc3)cc(C(F)(F)F)c2n1 (centres unmarked) [Compound 483, 3-(6-Furan-3-yl-8-trifluoromethyl-imidazo[1,2-a]pyridin-2-ylmethyl)-5-phenyl-oxazolidin-2-one]	99.9
O=C(c1nc2c(C(F)(F)F)cc(-c3ccoc3)cn2c1Cl)N1CCC=C(c2cscn2)C1 [Compound 589, (3-Chloro-6-furan-3-yl-8-trifluoromethyl-imidazo[1,2-a]pyridin-2-yl)-(5-thiazol-4-yl-3,6-dihydro-2H-pyridin-1-yl)-methanone]	76
O=C(NCc1cccs1)c1cc2cc(-c3ccco3)cc(Cl)n2n1 [Compound 145, 7-Chloro-5-furan-2-yl-pyrazolo[1,5-a]pyridine-2-carboxylic Acid (thiophen-2-ylmethyl)-amide]	49.8
[H]/N=C(/NCc1cccs1)c1nc2c(C(F)(F)F)cc(-c3ccoc3)cn2c1Cl [Compound 382, 3-Chloro-6-furan-3-yl-N-thiophen-2-ylmethyl-8-trifluoromethyl-imidazo[1,2-a]pyridine-2-carboxamidine]	65.4
O=C(c1nc2c(C(F)(F)F)cc(-c3ccoc3)cn2c1Cl)N1CCC(c2cccnc2)C1 (centres unmarked) [Compound 453, (3-Chloro-6-furan-3-yl-8-trifluoromethyl-imidazo[1,2-a]pyridin-2-yl)-(3-pyridin-3-yl-pyrrolidin-1-yl)-methanone]	97.6
O=C(c1nc2c(C(F)(F)F)cc(-c3ccoc3)cn2c1Cl)N1CC(NS(=O)(=O)c2ccccc2)C1 [Compound 492, N-[1-(3-Chloro-6-furan-3-yl-8-trifluoromethyl-imidazo[1,2-a]pyridine-2-carbonyl)-azetidin-3-yl]-benzenesulfonamide]	97.4
N#Cc1ccccc1C1CCN(C(=O)c2nc3c(C(F)(F)F)cc(-c4cn[nH]c4)cn3c2Cl)CC1 [Compound 607, 2-{1-[3-Chloro-6-(1H-pyrazol-4-yl)-8-trifluoromethyl-imidazo[1,2-a]pyridine-2-carbonyl]-piperidin-4-yl}-benzonitrile]	92.2
O=C(c1nc2c(C(F)(F)F)cc(-c3ccoc3)cn2c1Cl)N1CCC(c2ccc(F)cc2)CC1 [Compound 277, (3-Chloro-6-furan-3-yl-8-trifluoromethyl-imidazo[1,2-a]pyridine-2-yl)-[4-(4-fluoro-phenyl)-piperidin-1-yl]-methanone]	71.7
O=C(c1nc2c(C(F)(F)F)cc(-c3cn[nH]c3)cn2c1Br)N1CC=C(c2ccc(F)cc2)C1 [Compound 438, [3-Bromo-6-(1H-pyrazol-4-yl)-8-trifluoromethyl-imidazo[1,2-a]pyridin-2-yl]-[3-(4-fluoro-phenyl)-2,5-dihydro-pyrrol-1-yl]-methanone]	97.8
Cc1noc(Cc2c(C(=O)N3CCC(c4ccc(F)cc4)C3)nc3c(C(F)(F)F)cc(-c4ccoc4)cn23)n1 (centres unmarked) [Compound 243, [3-(4-Fluoro-phenyl)-pyrrolidin-1-yl]-[6-furan-3-yl-3-(3-methyl-[1,2,4]oxadiazol-5-ylmethyl)-8-trifluoromethyl-imidazo[1,2-a]pyridin-2-yl]-methanone]	86.2
O=C(c1nc2c(C(F)(F)F)cc(-c3ccco3)cn2c1Cl)N1CCC(Cc2ccccc2)C1 (centres unmarked) [Compound 326, (3-Benzyl-pyrrolidin-1-yl)-(3-chloro-6-furan-2-yl-8-trifluoromethyl-imidazo[1,2-a]pyridin-2-yl)-methanone]	66.7
CNC(=O)Cc1c(C(=O)N2CCC(c3ccc(F)cc3)C2)nc2c(C(F)(F)F)cc(-c3ccoc3)cn12 (centres unmarked) [Compound 245, 2-{2-[3-(4-Fluoro-phenyl)-pyrrolidine-1-carbonyl]-6-furan-3-yl-8-trifluoromethyl-imidazo[1,2-a]pyridin-3-yl}-N-methyl-acetamide]	63.9
O=C(c1nc2c(C(F)(F)F)cc(-c3ccoc3)cn2c1Cl)N1CCN(c2ccccn2)CC1 [Compound 532, (3-Chloro-6-furan-3-yl-8-trifluoromethyl-imidazo[1,2-a]pyridine-2-yl)-[4-pyridin-2-yl-piperazin-1-yl]-methanone]	79.1
O=C(c1nc2c(C(F)(F)F)cc(-c3cn[nH]c3)cn2c1Br)N1CC=C(c2cccc(F)c2)C1 [Compound 437, [3-Bromo-6-(1H-pyrazol-4-yl)-8-trifluoromethyl-imidazo[1,2-a]pyridin-2-yl]-[3-(3-fluoro-phenyl)-2,5-dihydro-pyrrol-1-yl]-methanone]	96.9
Cc1c(C(=O)NCc2cccs2)nc2c(C(F)(F)F)cc(-c3ccco3)cn12 [Compound 156, 6-Furan-2-yl-3-methyl-8-trifluoromethyl-imidazo[1,2-a]pyridine-2-carboxylic acid (thiophen-2-ylmethyl)-amide]	89.3
CS(=O)(=O)NC1CN(C(=O)c2cn3cc(-c4ccoc4)cc(C(F)(F)F)c3n2)C1 [Compound 519, N-[1-(6-Furan-3-yl-8-trifluoromethyl-imidazazo[1,2-a]pyridine-2-carbonyl)-azetidin-3-yl]-methanesulfonamide]	84.7

Compound	inhibition at 10 µM [%]
O=C(NCc1cccs1)c1nc2c(C(F)(F)F)cc(-c3cccc(F)c3)cn2c1C#Cc1cccnc1 [Compound 305, 6-(3-Fluoro-phenyl)-3-pyridin-3-ylethynyl-8-trifluoromethyl-imidazo[1,2-a]pyridine-2-carboxylic Acid (thiophen-2-ylmethyl)-amide]	59.5
O=C(c1nc2c(C(F)(F)F)cc(-c3ccco3)cn2c1Cl)N1CCC(O)(c2ccccc2)C1 (centres unmarked) [Compound 317, (3-Chloro-6-furan-2-yl-8-trifluoromethyl-imidazo[1,2-a]pyridin-2-yl)-(3-hydroxy-3-phenyl-pyrrolidin-1-yl)-methanone]	94.6
O=C(c1nc2c(C(F)(F)F)cc(-c3cn[nH]c3)cn2c1Br)N1CCC(c2cccc(F)c2)C1 (centres unmarked) [Compound 447, (3-Bromo-6-(1H-pyrazol-4-yl)-8-trifluoromethyl-imidazo[1,2-a]pyridin-2-yl)-(3-(3-fluoro-phenyl)-pyrrolidin-1-yl)-methanone]	92.8
O=C(c1cn2cc(-c3cn[nH]c3)cc(C(F)(F)F)c2n1)N1CC=C(c2nccs2)C1 [Compound 440, [6-(1H-Pyrazol-4-yl)-8-trifluoromethyl-imidazo[1,2-a]pyridin-2-yl]-(3-thiazol-2-yl-2,5-dihydro-pyrrol-1-yl)-methanone]	98.9
CC(C)c1cc(-c2ccccc2)cn2c(Br)c(C(=O)NCc3cccs3)nc12 [Compound 645, 3-Bromo-8-isopropyl-6-phenyl-imidazo[1,2-a]pyridine-2-carboxylic acid (thiophen-2-ylmethyl)-amide]	87.1
O=C(NCc1cccs1)c1nc2c(C(F)(F)F)cc(-c3cccc(F)c3)cn2c1CN1CCOCC1 [Compound 364, 6-(3-Fluoro-phenyl)-3-morpholin-4-ylmethyl-8-trifluoromethyl-imidazo[1,2-a]pyridine-2-carboxylic Acid (thiophen-2-ylmethyl)-amide]	5.3
COC(=O)C(NC(=O)c1nc2c(C(F)(F)F)cc(-c3ccco3)cn2c1Cl)c1cccs1 (centres unmarked) [Compound 166, [(3-Chloro-6-furan-2-yl-8-trifluoromethyl-imidazo[1,2-a]pyridine-2-carbonyl)-amino]-thiophen-2-yl-acetic acid methyl ester]	49.1
O=C(c1nc2c(C(F)(F)F)cc(-c3cn[nH]c3)cn2c1Br)N1CC=C(c2ccc(F)cc2)CC1 [Compound 608, [3-Bromo-6-(1H-pyrazol-4-yl)-8-trifluoromethyl-imidazo[1,2-a]pyridin-2-yl]-[4-(4-fluoro-phenyl)-3,6-dihydro-2H-pyridin-1-yl]-methanone]	62.7
O=C(NCc1cncs1)c1nc2c(C(F)(F)F)cc(-c3ccoc3)cn2c1Cl [Compound 360, 3-Chloro-6-furan-3-yl-8-trifluoromethyl-imidazo[1,2-a]pyridine-2-carboxylic Acid (thiazol-5-ylmethyl)-amide]	85.2
O=C(c1nc2c(C(F)(F)F)cc(-c3ccoc3)cn2c1Cl)N1CC(c2ccc(C(F)(F)F)cc2)C1 [Compound 488]	60.2
O=C(NCc1cccs1)c1nc2c(Cl)cc(-c3ccccc3)cn2c1Cl [Compound 370, 3,8-Dichloro-6-phenyl-imidazo[1,2-a]pyridine-2-carboxylic Acid (thiophen-2-ylmethyl)-amide]	80.4
O=C(c1nc2c(C(F)(F)F)cc(-c3ccoc3)cn2c1Cl)N1CC=C(c2ccncc2F)CC1 [Compound 572, (3-Chloro-6-furan-3-yl-8-trifluoromethyl-imidazo[1,2-1]pyridine-2-yl)-(3′-fluoro-3,6-dihydro-2H-[4,4′]bipyridinyl-1-yl)-methanone]	98.2
CS(=O)(=O)N[C@H]1CN(C(=O)c2nc3c(C(F)(F)F)cc(-c4ccoc4)cn3c2Cl)C[C@@H]1c1ccccc1 (stereo in doubt) [Compound 458, N-(-1-(3-Chloro-6-furan-3-yl-8-trifluoromethyl-imidazo[1,2-a]pyridine-2-carbonyl)-4-phenyl-pyrrolidin-3-yl)-methanesulfonamide]	64.6
O=C(c1nc2c(C(F)(F)F)cc(-c3ccoc3)cc2[nH]1)N1CCC(c2ccc(F)cc2)C1 (centres unmarked) [Compound 351, [3-(4-Fluoro-phenyl)-pyrrolidin-1-yl]-(6-furan-3-yl-4-trifluoromethyl-1H-benzoimidazol-2-yl)-methanone]	52.1
COc1ccccc1C1CCN(C(=O)c2nc3c(C(F)(F)F)cc(-c4ccoc4)cn3c2Cl)CC1 [Compound 550, (3-Chloro-6-furan-3-yl-8-trifluoromethyl-imidazo[1,2-a]pyridin-2-yl)-[4-(2-methoxy-phenyl)-piperidin-1-yl)-methanone]	64.8
O=C(NCc1cccs1)c1nc2c(C(F)(F)F)cc(-c3cc[nH]c3)cn2c1Cl [Compound 279, 3-Chloro-6-(1H-pyrrol-3-yl)-8-trifluoromethyl-imidazo[1,2-a]pyridine-2-carboxylic Acid(thiophen-2-ylmethyl)-amide]	95.8

Source: patent publication US20120121540A1 (priority 2007, published 2012)
